# Literature values as cited in PubChem BioAssay AID1259410 (Chemical Carcinogenesis Research Information System (CCRIS), 2018).
# Tested on: rodent tumor promotion studies, tumor incidence
# Assay: CCRIS tumor promotion studies
compound,measurement,setting,value
CCO,outcome,"Carcinogen: N-METHYL-N'-NITRO-N-NITROSOGUANIDINE, 70-25-7, Doses [Carcinogen]: 50 UG/ML IN DRINKING WATER FOR 20 WK, Doses [Promoter]: 0, 2.5 ML/KG BW OF 20% AGENT IN 0.9% SALINE SOLUTION 1/2D BEGINNING 1 WK POST LAST CARCINOGEN DOSE AND CONTINUING FOR DU, Route [Carcinogen]: ORAL, Route [Promoter]: INTRAPERITONEAL, Species: RAT, Strain/Sex: WISTAR/MALE",stomach: adenocarcinoma
same,outcome,"Carcinogen: N-METHYL-N-NITROSOUREA, 684-93-5, Doses [Carcinogen]: 30 MG/KG BW ONCE AT 50 D OF AGE, Doses [Promoter]: 0, 15% OF CALORIES IN DIET FOR 4 WK BEGINNING 3 WK PRIOR TO CARCINOGEN DOSE (STUDY DURATION: 25 WK), Route [Carcinogen]: INTRAPERITONEAL, Route [Promoter]: ORAL, Species: RAT, Strain/Sex: SPRAGUE-DAWLEY/FEMALE",mammary gland: adenocarcinoma
same,outcome,"Carcinogen: N-METHYL-N-NITROSOUREA, 684-93-5, Doses [Carcinogen]: 30 MG/KG BW ONCE AT 51 D OF AGE, Doses [Promoter]: 0, 15%, 20% OF CALORIES IN DIET BEGINNING 1 WK POST CARCINOGEN DOSE AND CONTINUING FOR DURATION OF STUDY (STUDY DURATION, Doses [Promoter]: 0, 15%, 20% OF CALORIES IN DIET BEGINNING 1 WK POST CARCINOGEN DOSE AND CONTINUING FOR DURATION OF STUDY (STUDY DURATION, Route [Carcinogen]: INTRAPERITONEAL, Route [Promoter]: ORAL, Species: RAT, Strain/Sex: SPRAGUE-DAWLEY/FEMALE",mammary gland: adenocarcinoma
same,outcome,"Carcinogen: N-NITROSODIMETHYLAMINE, 62-75-9, Doses [Carcinogen]: 1 PPM IN DRINKING WATER FOR 48 OR 72 WK, Doses [Promoter]: 0, 10% IN DRINKING WATER FOR 48 OR 72 WK (STUDY DURATION: 72 WK), Route [Carcinogen]: ORAL, Route [Promoter]: ORAL, Species: MOUSE, Strain/Sex: STRAIN-A/MALE",lung: tumor
same,outcome,"Carcinogen: N-NITROSODIMETHYLAMINE, 62-75-9, Doses [Carcinogen]: 5 MG/KG ONCE, Doses [Promoter]: 0, 5, 10, 20% SOLUTION ADMINISTERED WITH CARCINOGEN DOSE (STUDY DURATION: 16 WK), Doses [Promoter]: 0, 5, 10, 20% SOLUTION ADMINISTERED WITH CARCINOGEN DOSE (STUDY DURATION: 16 WK), Route [Carcinogen]: GAVAGE, Route [Promoter]: GAVAGE, Species: MOUSE, Strain/Sex: STRAIN-A/MALE",lung: tumor
same,outcome,"Carcinogen: N-NITROSODIMETHYLAMINE, 62-75-9, Doses [Carcinogen]: 5 PPM IN DRINKING WATER FOR 4 WK, Doses [Promoter]: 0, 1, 5, 10% IN DRINKING WATER FOR 4 WK (STUDY DURATION: 16 WK), Doses [Promoter]: 0, 1, 5, 10% IN DRINKING WATER FOR 4 WK (STUDY DURATION: 16 WK), Route [Carcinogen]: ORAL, Route [Promoter]: ORAL, Species: MOUSE, Strain/Sex: STRAIN-A/MALE",lung: tumor
same,outcome,"Carcinogen: N-NITROSOMETHYLBENZYLAMINE, 937-40-6, Doses [Carcinogen]: 0.2 MG/KG BW IN CORN OIL 3/WK FOR 3 WK, Doses [Promoter]: 0, 30% OF TOTAL CALORIES BEGINNING POST CARCINOGEN TREATMENT AND CONTINUING FOR DURATION OF STUDY (STUDY DURATION: 23 WK, Route [Carcinogen]: GAVAGE, Route [Promoter]: ORAL, Species: MOUSE, Strain/Sex: C57BL/FEMALE",esophagus: tumor
same,outcome,"Carcinogen: N-NITROSOMETHYLBENZYLAMINE, 937-40-6, Doses [Carcinogen]: 0.2 MG/KG IN CORN OIL 3/WK FOR 3 WK, Doses [Promoter]: SUBSTITUTED FOR MALTOSE DEXTRIN IN DIET TO PROVIDE 30% OF TOTAL DIETARY CALORIES BEGINNING POST CARCINOGEN TREATMENT AND, Route [Carcinogen]: GAVAGE, Route [Promoter]: ORAL, Species: MOUSE, Strain/Sex: C57BL/FEMALE",esophagus: tumor
same,outcome,"Carcinogen: N-NITROSOMETHYLBENZYLAMINE, 937-40-6, Doses [Carcinogen]: 2.5 MG/KG 3/WK FOR 3 WK, Doses [Promoter]: 1-2% IN LIQUID DIET ON DAY 1 AND INCREASING TO 7% BY DAY 8 OF AGENT TREATMENT BEGINNING 1 WK POST LAST CARCINOGEN DOSE F, Route [Carcinogen]: INTRAPERITONEAL, Route [Promoter]: ORAL, Species: RAT, Strain/Sex: SPRAGUE-DAWLEY/MALE",esophagus: papilloma
same,outcome,"Carcinogen: N-NITROSOPYRROLIDINE, 930-55-2, Doses [Carcinogen]: 6.8 PPM IN DRINKING WATER FOR 4 WK, Doses [Promoter]: 0, 10% IN STERILIZED DISTILLED DRINKING WATER ADMINISTERED WITH CARCINOGEN FOR 4 WK (STUDY DURATION: 36 WK), Route [Carcinogen]: ORAL, Route [Promoter]: ORAL, Species: MOUSE, Strain/Sex: STRAIN-A/MALE",lung: tumor
same,outcome,"Carcinogen: N-NITROSOPYRROLIDINE, 930-55-2, Doses [Carcinogen]: 40 PPM IN DRINKING WATER FOR 4 WK, Doses [Promoter]: 0, 10% IN STERILIZED DISTILLED DRINKING WATER ADMINISTERED WITH CARCINOGEN FOR 4 WK (STUDY DURATION: 36 WK), Route [Carcinogen]: ORAL, Route [Promoter]: ORAL, Species: MOUSE, Strain/Sex: STRAIN-A/MALE",lung: tumor
same,outcome,"Carcinogen: NITROSODIETHYLAMINE, 55-18-5, Doses [Carcinogen]: 6.8 PPM IN DRINKING WATER FOR 4 WK, Doses [Promoter]: 0, 10% IN STERILIZED DISTILLED DRINKING WATER ADMINISTERED WITH CARCINOGEN FOR 4 WK (STUDY DURATION: 36 WK), Route [Carcinogen]: ORAL, Route [Promoter]: ORAL, Species: MOUSE, Strain/Sex: STRAIN-A/MALE",lung: tumor; forestomach: carcinoma
same,outcome,"Doses [Carcinogen]: 1.5 MG/KG IN DMSO 2/WK FOR 10 WK (TOTAL DOSE: 30 MG/KG), Doses [Promoter]: 10% IN DRINKING WATER FOR 56 WK ADMINISTERED 1 WK POST CARCINOGEN DOSES (STUDY DURATION: 57 WK), Route [Carcinogen]: INTRAPERITONEAL, Route [Promoter]: ORAL, Species: RAT, Strain/Sex: ACI/N/MALE","liver: hepatocellular carcinoma, neoplastic nodule"
